SMILES strings stand for the structures. “Also recorded” adds a separate entry of the source. Where only a bound is given, the exact number is not on record here.

The subject of assay [1] is A2058 and A375 melanoma cell lines. Further details: method as in PMID 31294975. Conditions: 10 µM; cited from earlier work.
Assay [2] addresses T1, CDC25B (Homo sapiens, UniProt P30305).
T1 sequence (P30305 377-551 isoform P30305-2 limits assumed): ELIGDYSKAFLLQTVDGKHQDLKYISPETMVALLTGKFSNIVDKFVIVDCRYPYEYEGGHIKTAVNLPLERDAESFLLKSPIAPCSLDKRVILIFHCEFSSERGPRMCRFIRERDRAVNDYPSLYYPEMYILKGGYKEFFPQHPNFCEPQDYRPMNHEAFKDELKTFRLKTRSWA
As to the kind of experiment: Intrinsic fluorescence quenching of recombinant CDC25B catalytic domain (Stern-Volmer). It counts as binding. As to the method: Fluorescence spectra were recorded at 20 °C using a computer-assisted Cary Eclipse spectrofluorimeter (Varian, Palo Alto, CA, USA) equipped with an electronic temperature controller. The excitation wavelength was set at 280 nm and the excitation and emission slits were set at 10 and 20 nm, respectively. A 500 µL final volume of a 0.2 µM solution of CDC25B or CDC25B-C473S dissolved in 20 mM Tris•HCl, pH 7.8, 0.5 mM TCEP was directly prepared in the fluorimetric cuvette in the absence or in the presence of OMFP and/or some NPA derivatives. Serial pre-dilutions of the NPA derivatives or OMFP at increasing concentration were prepared in DMSO or methanol, respectively. Alongside, a convenient amount of the enzyme pre-dilution was prepared just before its usage for the experiment and stored on ice. When the combined effect of NPA derivative and OMFP was investigated, two enzyme pre-dilutions were prepared in the absence or in the presence of 5 µM OMFP. In order to evaluate the specific effect produced by any addition of solvent/ligand on the intrinsic fluorescence of the enzyme, 495 µL of the enzyme pre-dilution were placed in the fluorimetric cuvette and the relative spectrum was recorded; after the addition of 5 µL of each pre-dilution of solvent/ligand and fast mixing, the spectrum was recorded again. This procedure, repeated for each experimental point, allowed a normalisation of the specific effects produced by solvent/ligands. Furthermore, a correction was also applied for the little inner-filter effect due to the absorbance at 280 nm of the NPA derivative used at different concentrations; on the other hand, no correction was necessary for OMFP. All spectra, recorded at a scan speed of 120 nm/min, were normalised and corrected.

Assay [3] concerns the target T2, CDC25B (Homo sapiens, UniProt P30305).
T2 sequence (P30305 1-580): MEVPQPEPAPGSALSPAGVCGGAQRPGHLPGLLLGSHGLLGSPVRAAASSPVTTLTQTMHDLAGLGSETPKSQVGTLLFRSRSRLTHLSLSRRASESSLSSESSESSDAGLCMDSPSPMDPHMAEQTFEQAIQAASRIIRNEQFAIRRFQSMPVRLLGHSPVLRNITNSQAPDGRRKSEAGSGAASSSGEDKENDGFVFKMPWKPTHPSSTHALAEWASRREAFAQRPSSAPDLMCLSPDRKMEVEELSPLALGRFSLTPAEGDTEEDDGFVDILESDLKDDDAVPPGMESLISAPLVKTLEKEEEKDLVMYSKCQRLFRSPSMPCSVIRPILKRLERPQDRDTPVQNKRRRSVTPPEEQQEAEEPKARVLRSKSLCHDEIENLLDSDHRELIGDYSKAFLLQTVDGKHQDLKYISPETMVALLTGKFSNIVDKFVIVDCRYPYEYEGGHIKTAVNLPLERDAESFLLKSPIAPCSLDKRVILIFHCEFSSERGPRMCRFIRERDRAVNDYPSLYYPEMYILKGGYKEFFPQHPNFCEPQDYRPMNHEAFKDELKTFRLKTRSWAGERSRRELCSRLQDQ
As to the kind of experiment: Kinetic studies of CDC25B phosphatase inhibition (OMFP substrate). It counts as biochemical. Conditions: putative from Lineweaver-Burk plots (ref 18), confirmed by the fluorescence studies of this work.

Regarding `CCOC(=O)c1cccc(Nc2cc(OC)cc3ccccc23)c1` [4a], in assay [1], the “cell cycle of melanoma cells” value is recorded as “arrest of cells in G2/M phase; also recorded: arrest in the G2/M phase; also recorded: arrested the cell cycle of melanoma cells in G2/M phase”, the “cell growth of melanoma cells” value is “reduced the cell growth rate; also recorded: significantly reduced; also recorded: significant antiproliferative action” and the pCDK1 protein levels result is recorded as “increase”. Also, the “KSV (Stern-Volmer constant)” value on CDC25B [2] (0.2 µM wild-type CDC25B, emission 357 nm, 20 °C, no OMFP) was 0.010 µM⁻¹. Moreover, the Kd on CDC25B [2] (reciprocal of KSV, inhibitor concentration leading to 50% quenching of CDC25B emission, read-out: K′D of the complex, Free CDC25B•inhibitor) is above 50 µM. Further, the Inhibition mechanism result on CDC25B [3] is given as “uncompetitive”.

The record behind these values is publication PMC7580834, “Inhibition mechanism of naphthylphenylamine derivatives acting on the CDC25B dual phosphatase and analysis of the molecular processes involved in the high cytotoxicity exerted by one selected derivative in melanoma cells” (Journal of Enzyme Inhibition and Medicinal Chemistry, 2020).
